Measured values taken from patent US20220340547A1, “INDOLE DERIVATIVE-CONTAINING INHIBITOR, PREPARATION METHOD THEREFOR AND APPLICATION THEREOF” (Shanghi Hansoh Biosoh Biomedical Co., Ltd., priority 2019, published 2022).

Experiments:
[1] = tested on: Ba/F3 EGFR-D770-N771ins_SVD xenograft; assay: In vivo pharmacodynamic study in mouse pro-B cell Ba/F3 EGFR-D770-N771ins_SVD xenograft model; conditions: 40 mg/kg, oral, 1 time/day, 14 days; for Tumor volume (mm3, Mean ± SD) Day 14: BALB/cA nude mice
Protocol: In Vivo Pharmacodynamic Study of the Compound of the Present Invention in the Mouse Pro-B Cell Ba/F3 EGFR-D770-N771ins_SVD Xenograft Model
The in vivo efficacy of the compound in the mouse pro-B cell Ba/F3 EGFR-D770-N771ins_SVD xenograft model was evaluated.
BALB/cA nude mice (6-8 weeks old, female) were purchased from Shanghai Sino-British SIPPR/BK Lab Animal Co., Ltd.
a. […] The resuscitated cells were placed in the cell culture flasks (cell type, date, the name of the culturing person and the like were marked on the flask wall), and incubated in a CO2 incubator (the incubator temperature was 37° C., and the CO2 concentration was 5%).
b. The cells were passaged every three days. After passage, the cells were further incubated in the CO2 incubator. The process was repeated until the number of cells met the requirements of the in vivo pharmacodynamic study.
c. The cultured cells were collected and counted by the automatic cell counter. According to the counting results, the cells were resuspended in PBS to prepare a cell suspension (density: 2×10^7 cells/mL), which was placed in an ice box for later use.
d. The test nude mice were inoculated in turn (0.1 mL of cell suspension per mouse).
a. Tumor was measured on Day 8 to Day 14 after inoculation depending on the tumor growth, and tumor size was calculated.
Tumor volume calculation: tumor volume (mm^3)=length (mm)×width (mm)×width (mm)/2
b. According to the body weight and tumor size of the tumor-bearing mouse, the mice were randomly grouped (5 mice per group).
d. The tumor was measured and the mouse was weighed twice a week after the test drug was administrated.
Calculation of the Tumor Growth Inhibition Rate TGI (%) of the Compound: […]

[2] = tested on: A431 cell line; assay: Proliferation of A431 cell line (CellTiter-Glo); format: cell-based; conditions: Homo sapiens, A-431, 72 h
[3] = target: EGFR D770_N771insNPG (Homo sapiens, UniProt P00533, INS770NPG); assay: TR-FRET inhibition of kinase activity of EGFR exon 20 insertion mutation; format: biochemical
[4] = target: Ba/F3 EGFR-D770-N771ins_SVD (Homo sapiens, UniProt P00533, DUP768-770, cells depend on it); assay: Proliferation of Ba/F3 EGFR mutant cell line (CellTiter-Glo); format: cell-based, mouse; conditions: 72 h to 144 h, read-out: Ba/F3 EGFR-D770-N771ins_SVD IC50
[5] = Plasma stability test, rat plasma; format: in vitro ADME; conditions: 37° C.
Protocol: (§1) Test Example 5. Plasma Stability Test
(§2) The objective of this experiment is to determine the stability of the compounds of the examples in the plasma of mouse, rat and human.
(§3) 1. Plasma preparation: Animal or human whole blood was collected, placed into a test tube containing anticoagulant, and centrifuged at 3500 rpm for 10 min. The light yellow plasma in the upper layer was collected.
(§4) 2. 1 mM test compound (m/M/V=C), the compound was weighed and formulated into stock solution with DMSO.
(§5) 1. 398 μL of plasma and 2 μL of 1 mM compound (test compound) were added successively to a 96-well plate, and incubated at 37° C.
(§6) 2. 50 μL of solution was taken out at 0, 15, 30, 60, 120 min, to which 400 μL of methanol stop solution containing internal standard was added.
(§7) 3. The solution was centrifuged (3220 g, 30 min). 50 μL of supernatant was taken out, to which 50 μL of DDH2O was added to dilute. The resulting solution was injected into a LC-MS/MS.

[6] = Plasma stability test, mouse plasma; format: in vitro ADME; conditions: 37° C.
Protocol: as §1, §2, §3, §4, §5, §6, §7

[7] = Plasma stability test, human plasma; format: in vitro ADME; conditions: 37° C.
Protocol: as §1, §2, §3, §4, §5, §6, §7

Ba/F3 EGFR-D770-N771ins_SVD, sequence (P00533 with tags, fused parts or gaps DUP768-770): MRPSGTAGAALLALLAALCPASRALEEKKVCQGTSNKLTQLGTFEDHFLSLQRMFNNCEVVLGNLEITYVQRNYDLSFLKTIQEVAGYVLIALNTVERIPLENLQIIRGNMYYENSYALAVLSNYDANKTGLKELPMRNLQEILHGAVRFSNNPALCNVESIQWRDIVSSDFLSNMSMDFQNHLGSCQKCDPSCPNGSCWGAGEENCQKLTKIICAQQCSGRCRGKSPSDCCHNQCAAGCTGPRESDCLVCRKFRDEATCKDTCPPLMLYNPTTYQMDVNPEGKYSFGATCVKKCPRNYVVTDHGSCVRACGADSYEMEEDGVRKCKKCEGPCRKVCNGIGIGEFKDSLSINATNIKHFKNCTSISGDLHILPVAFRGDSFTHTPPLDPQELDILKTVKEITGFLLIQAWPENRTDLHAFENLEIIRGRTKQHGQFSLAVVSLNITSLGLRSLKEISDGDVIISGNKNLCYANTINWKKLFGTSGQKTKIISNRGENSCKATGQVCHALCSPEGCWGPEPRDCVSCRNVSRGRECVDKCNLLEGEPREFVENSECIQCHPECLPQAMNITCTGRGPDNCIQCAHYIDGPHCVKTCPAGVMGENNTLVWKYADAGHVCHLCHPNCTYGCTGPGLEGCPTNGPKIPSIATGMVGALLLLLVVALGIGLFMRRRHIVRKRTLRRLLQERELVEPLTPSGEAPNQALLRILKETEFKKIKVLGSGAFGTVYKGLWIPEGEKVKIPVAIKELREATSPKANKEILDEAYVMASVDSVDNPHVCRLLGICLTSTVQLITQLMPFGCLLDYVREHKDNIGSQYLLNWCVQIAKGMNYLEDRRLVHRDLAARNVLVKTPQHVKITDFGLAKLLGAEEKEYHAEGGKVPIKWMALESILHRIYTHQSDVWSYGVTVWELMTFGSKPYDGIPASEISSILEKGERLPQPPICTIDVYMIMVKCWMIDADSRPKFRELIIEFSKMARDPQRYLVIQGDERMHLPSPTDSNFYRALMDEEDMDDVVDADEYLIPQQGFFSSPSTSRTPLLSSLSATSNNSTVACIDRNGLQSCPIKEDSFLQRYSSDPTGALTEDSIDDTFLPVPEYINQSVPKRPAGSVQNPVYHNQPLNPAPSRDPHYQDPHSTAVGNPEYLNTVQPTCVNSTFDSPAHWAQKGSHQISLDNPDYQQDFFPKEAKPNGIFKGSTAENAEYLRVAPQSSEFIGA
EGFR D770_N771insNPG, sequence (P00533 with tags, fused parts or gaps INS770NPG limits assumed): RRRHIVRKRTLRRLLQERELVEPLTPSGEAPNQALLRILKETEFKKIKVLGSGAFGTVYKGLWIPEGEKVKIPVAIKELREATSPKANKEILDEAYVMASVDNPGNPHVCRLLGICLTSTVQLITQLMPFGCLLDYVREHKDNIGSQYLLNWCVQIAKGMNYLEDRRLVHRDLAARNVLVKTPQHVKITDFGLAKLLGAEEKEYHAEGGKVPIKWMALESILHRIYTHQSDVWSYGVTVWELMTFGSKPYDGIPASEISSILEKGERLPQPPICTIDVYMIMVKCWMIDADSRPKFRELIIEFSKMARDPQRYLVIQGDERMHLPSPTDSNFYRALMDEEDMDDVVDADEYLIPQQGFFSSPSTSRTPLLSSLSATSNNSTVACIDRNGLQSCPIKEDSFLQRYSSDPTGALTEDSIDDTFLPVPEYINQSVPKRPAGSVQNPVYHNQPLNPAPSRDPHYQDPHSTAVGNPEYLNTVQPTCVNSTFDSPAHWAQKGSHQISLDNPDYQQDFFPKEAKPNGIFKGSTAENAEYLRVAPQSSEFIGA

IC50 [2] | IC50 [3] | GI50 [4] | SMILES | T/C (%) Day 14 [1] | TGI (%) Day 14 [1] | Tumor volume (mm3, Mean ± SD) Day 14 [1] | other results
– | – | – | C=CC(=O)Nc1cc(Nc2nccc(-c3cn(C)c4ccccc34)n2)c(OC)cc1N(C)CCN(C)C [ADZ9291] | 48.40% | 51.60% | 935 ± 176 mm3 | –
66 nM | 0.56 nM | 16.6 nM | C=CC(=O)Nc1cc(Nc2ncc(-c3ncco3)c(-c3cn(C4CC4)c4ccccc34)n2)c(OC)cc1N(C)CCN(C)C [Example 37, N-(5-((4-(1-Cyclopropyl-1H-indol-3-yl)-5-(oxazol-2-yl)pyrimidin-2-yl)amino)-2-((2-(dimethylamino)ethyl)(methyl)amino)-4-methoxyphenyl)acrylamide] | 25.75% | 74.25% | 499 ± 151 mm3 | –
94.5 nM | 0.14 nM | 10.4 nM | C=CC(=O)Nc1cc(Nc2ncc(C#N)c(-c3cn(C4CC4)c4ccccc34)n2)c(OC)cc1N(C)CCN(C)C [Example 67, N-(5-((5-Cyano-4-(1-cyclopropyl-1H-indol-3-yl)pyrimidin-2-yl)amino)-2-((2-(dimethylamino)ethyl)(methyl)amino)-4-methoxyphenyl)acrylamide] | 10.94% | 89.06% | 212 ± 44 mm3 | half-life at 5 µM [5]: 1.23 h; Residual rate (%) 0 min ([5]; 0 min): 100.00%; Residual rate (%) 15 min ([5]; 15 min): 90.61%; Residual rate (%) 30 min ([5]; 30 min): 81.14%; Residual rate (%) 60 min ([5]; 60 min): 59.66%; Residual rate (%) 120 min ([5]; 120 min): 33.25%; half-life at 5 µM [6]: 0.665 h; Residual rate (%) 0 min ([6]; 0 min): 100.00%; Residual rate (%) 15 min ([6]; 15 min): 88.69%; Residual rate (%) 30 min ([6]; 30 min): 69.92%; Residual rate (%) 60 min ([6]; 60 min): 36.29%; Residual rate (%) 120 min ([6]; 120 min): 9.06%; half-life at 5 µM [7]: 1.38 h; Residual rate (%) 0 min ([7]; 0 min): 100.00%; Residual rate (%) 15 min ([7]; 15 min): 93.86%; Residual rate (%) 30 min ([7]; 30 min): 85.71%; Residual rate (%) 60 min ([7]; 60 min): 67.74%; Residual rate (%) 120 min ([7]; 120 min): 37.38%
66.8 nM | 0.47 nM | 22.9 nM | C=CC(=O)Nc1cc(Nc2ncc(-c3ncco3)c(-c3cn(C)c4ccccc34)n2)c(OC)cc1N(C)CCN(C)C [Example 81, N-(2-((2-(Dimethylamino)ethyl)(methyl)amino)-4-methoxy-5-((4-(1-methyl-1H-indol-3-yl)-5-(oxazol-2-yl)pyrimidin-2-yl)amino)phenyl)acrylamide] | 17.23% | 82.77% | 334 ± 121 mm3 | –
